Test results reported in patent US20060229433A1, “Modified antiviral peptides with increased activity and cell membrane affinity” (priority 2003, published 2006).
Several values for one entry are separate records, joined by “and”; a condition that tells them apart may be missing. Equal values may be shown once. Bridge positions count the residues as written; N and C are the ends. Square brackets hold non-standard residues; d marks the D form. Peptide text beside a SMILES is read from it. I, II: the chains in the order shown. βAla = NCCC(=O)O

Experiments:
Assay type in all cases: cell-based
[1] = test system: HIV-1 NL 4-3; assay: HIV-1 infection of C8166 cells (syncytia formation, p24 ELISA) with HIV-1 NL 4-3
Method: (§1) HIV-1 NL 4-3 isolate (Adachi et al., 1986; Barré-Sinoussi et al., 1983) and highly cytopathic Zairian HIV-1 NDK isolate (Ellrodt et al., 1984) was propagated in permissive CEM cells (Nara et al., 1987). Uninfected CEM and C8166 (Salahuddin et al., 1983) were maintained in RPMI 1640 (R10) with ultraglutamine (cambrex, Vervier, Belgium), penicillin (100 U/ml), streptomycin (100 μg/ml), and 10% heat-inactivated fetal calf serum (Cambrex).
(§2) Samples of 3×10^5/100 μL C8166 cells were preincubated in 96-well microtiter plates in culture medium containing various concentrations of peptide. After a 1 h treatment at 37° C., 100 μl of diluted viral solution of HIV-1 was added. The cells were exposed to the virus for 1 h at 37° C. at a multiplicity of infection of 1000 TCID50 per ml. The cells were washed three times and cultured at 3×10^5/ml of R10 with the treatment in 24-well plates incubated at 37° C. C8166 culture medium was replaced at Day-4 post-infection. The treatment was permanent before virus adsorption, during virus adsorption and after infection. Assays on C8166 cells have been performed at least twice and in duplicate. Toxicity was evaluated by daily cell count and trypan-blue exclusion assay. Infection of C8166 T-cells with HIV-1 was assessed by virus-induced cytopathic effects (syncytia formation) and by quantification of cell free p24 viral protein in the culture supernatants. Measurements of HIV-1 p24^gag concentration in the culture supernatants were achieved by ELISA (ALLIANCE® HIV-1 p24 kit, Perkin Elmer, life sciences, USA).

[2] = test system: HIV-1 NL 4-3; assay: Infection of human peripheral blood lymphocytes (PBL) with NL 4-3 strain, p24 ELISA
Method: Peripheral blood lymphocytes from an HIV-1 negative donor were grown as described earlier, maintained in RPMI 1640 with ultraglutamine, supplemented with IL2 (20 μg/ml), penicillin (100 U/ml), streptomycin (100 μg/ml), and 10% heat-inactivated fetal calf serum. Cells were stimulated three days in the medium supplemented with phytohemagglutinin (20 U/ml PHA P, DIFCO, Detroit Mich.).
Samples of 10^6/100 μL PBL cells were preincubated in 96-well microtiter plates in culture medium containing various concentrations of peptides. After a 1 h treatment at 37° C., 100 μl of diluted viral solution of HIV-1 was added. The cells were exposed to the virus for 1 h at 37° C. at a multiplicity of infection of 1000 TCID50 per ml. The cells were washed three times and cultured at […] of medium with the treatment in 24-well plates incubated at 37° in culture medium with the peptides in 5% CO2. The treatment was permanent before virus adsorption, during virus adsorption and after infection. The PBL culture medium was replaced every 3-4 days during three weeks always in the presence of peptide. The cell viability was assessed by cell counts and trypan-blue exclusion assay. The viral production in the culture supernatant was quantified by p24 ELISA test, as described earlier. All the experiments have been done in blind-tests. Tests have been done in duplicate.

[3] = test system: HIV-1 NL 4-3; assay: HIV-1 infection of C8166 cells (syncytia formation, p24 ELISA) with HIV-1 NL 4-3; parameters: key: ++, +, (+), (+)− and − represent decreasing numbers of syncitia formed; ++, +, (+), (+)− and − represent decreasing numbers of syncitia formed; ++, +, (+), (+)− and − represent decreasing numbers of syncitia formed; ++, +, (+), (+)− and − represent decreasing numbers of syncitia formed; ++, +, (+), (+)− and − represent decreasing numbers of syncitia formed; settings: Table 1
Method: as §1, §2

[4] = test system: HIV-1 NL 4-3; assay: as above; parameters: key: ++, +, (+), (+)− and − represent decreasing numbers of syncitia formed.; ++, +, (+), (+)− and − represent decreasing numbers of syncitia formed.; ++, +, (+), (+)− and − represent decreasing numbers of syncitia formed.; ++, +, (+), (+)− and − represent decreasing numbers of syncitia formed.; ++, +, (+), (+)− and − represent decreasing numbers of syncitia formed; settings: Table 2
Method: as §1, §2

Compound: CC(C)C[C@H](NC(=O)[C@@H]1CCCN1C(=O)[C@H](CO)NC(=O)[C@H](Cc1ccc(O)cc1)NC(=O)CNC(=O)[C@H](CCC(N)=O)NC(=O)[C@@H](N)CCCNC(=N)N)C(=O)NCCCC[C@H](NC(=O)[C@H](CC(C)C)NC(=O)[C@@H]1CCCN1C(=O)[C@H](CO)NC(=O)[C@H](Cc1ccc(O)cc1)NC(=O)CNC(=O)[C@H](CCC(N)=O)NC(=O)[C@@H](N)CCCNC(=N)N)C(=O)NCCC(=O)O [RL dimer, (RQGYSPL)2-K-βA, reference compound] (I: H-RQGYSPLK[βAla]-OH / II: H-RQGYSPL; amide I:8-II:C; N-terminus assumed)
- IC50 ([1]; C8166 cells, HIV-1 subtype B NL 4-3, Table 3): 20 nM
- IC50 ([2]; PBL, NL 4-3 strain, Table 4): 10 nM
- IC100 ([2]; PBL, NL 4-3 strain, Table 4): 0.1 µM

Compound: SPC3-(ε-aminocaproic acid) [S4]
- P 24 ([1]; Day 4, 0.5 μM, Table 1): 43 pg/mL and 28 pg/mL
- P 24 ([1]; Day 4, 2 μM, Table 1): 17 pg/mL and 14 pg/mL
- P 24 ([1]; Day 7, 0.5 μM, Table 1): 19801 pg/mL and 25000 pg/mL
- P 24 ([1]; Day 7, 1 μM, Table 1): 19801 pg/mL and 21640 pg/mL
- P 24 ([1]; Day 7, 2 μM, Table 1): 17872 pg/mL and 24806 pg/mL
- P 24 ([1]; Day 7, 5 μM, Table 1): 21120 pg/mL and 15674 pg/mL
- IC100 ([2]; on PBL): 0.5 µM
- Day 4 syncitia formed ([3]; 0.5 μM): −
- Day 5 syncitia formed ([3]; 0.5 μM): +
- Day 6 syncitia formed ([3]; 0.5 μM): +
- Day 7 syncitia formed ([3]; 0.5 μM): ++
- Day 4 syncitia formed ([3]; 1 μM): −
- Day 5 syncitia formed ([3]; 1 μM): +
- Day 6 syncitia formed ([3]; 1 μM): +
- Day 7 syncitia formed ([3]; 1 μM): ++
- Day 4 syncitia formed ([3]; 2 μM): −
- Day 5 syncitia formed ([3]; 2 μM): +
- Day 6 syncitia formed ([3]; 2 μM): +
- Day 7 syncitia formed ([3]; 2 μM): ++
- Day 4 syncitia formed ([3]; 5 μM): −
- Day 5 syncitia formed ([3]; 5 μM): +
- Day 6 syncitia formed ([3]; 5 μM): +
- Day 7 syncitia formed ([3]; 5 μM): ++

Compound: SPC3-Penetratin [S2]
- P 24 ([1]; Day 4, 0.5 μM, Table 1): NEG
- P 24 ([1]; Day 4, 0.5 μM, Table 2): 2 pg/mL
- P 24 ([1]; Day 4, 1 μM, Table 1): NEG
- P 24 ([1]; Day 4, 1 μM, Table 2): NEG
- P 24 ([1]; Day 4, 2 μM, Table 1): NEG
- P 24 ([1]; Day 4, 5 μM, Table 1): NEG
- P 24 ([1]; Day 7, 0.5 μM, Table 2): 115 pg/mL and 91 pg/mL
- P 24 ([1]; Day 7, 1 μM, Table 1): 181 pg/mL and 245 pg/mL
- Day 4 syncitia formed ([4]; 0.05 μM): (+)
- Day 5 syncitia formed ([4]; 0.05 μM): + and ++
- Day 6 syncitia formed ([4]; 0.05 μM): ++
- Day 7 syncitia formed ([4]; 0.05 μM): ++
- Day 4 syncitia formed ([4]; 0.1 μM): (+)
- Day 5 syncitia formed ([4]; 0.1 μM): +
- Day 6 syncitia formed ([4]; 0.1 μM): +
- Day 7 syncitia formed ([4]; 0.1 μM): ++
- Day 4 syncitia formed ([4]; 0.5 μM): −
- Day 5 syncitia formed ([4]; 0.5 μM): −
- Day 6 syncitia formed ([4]; 0.5 μM): −
- Day 7 syncitia formed ([4]; 0.5 μM): (+) and +
- Day 4 syncitia formed ([4]; 1 μM): −
- Day 5 syncitia formed ([4]; 1 μM): −
- Day 6 syncitia formed ([4]; 1 μM): −
- Day 7 syncitia formed ([4]; 1 μM): −
- IC100 ([2]; on PBL): 0.01 µM
- Day 4 syncitia formed ([3]; 0.5 μM): −
- Day 5 syncitia formed ([3]; 0.5 μM): −
- Day 6 syncitia formed ([3]; 0.5 μM): −
- Day 7 syncitia formed ([3]; 0.5 μM): +
- Day 4 syncitia formed ([3]; 1 μM): −
- Day 5 syncitia formed ([3]; 1 μM): −
- Day 6 syncitia formed ([3]; 1 μM): −
- Day 7 syncitia formed ([3]; 1 μM): −
- Day 4 syncitia formed ([3]; 2 μM): −
- Day 5 syncitia formed ([3]; 2 μM): −
- Day 6 syncitia formed ([3]; 2 μM): −
- Day 7 syncitia formed ([3]; 2 μM): −

Compound: SPC3-Tat [S3]
- P 24 ([1]; Day 4, 0.1 μM, Table 2): 61 pg/mL and 33 pg/mL
- P 24 ([1]; Day 4, 2 μM, Table 1): NEG
- P 24 ([1]; Day 4, 5 μM, Table 1): NEG
- P 24 ([1]; Day 7, 0.05 μM, Table 2): 3664 pg/mL and 2064 pg/mL
- P 24 ([1]; Day 7, 0.1 μM, Table 2): 787 pg/mL and 496 pg/mL
- Day 4 syncitia formed ([4]; 0.05 μM): (+)
- Day 5 syncitia formed ([4]; 0.05 μM): +
- Day 6 syncitia formed ([4]; 0.05 μM): ++
- Day 7 syncitia formed ([4]; 0.05 μM): ++
- Day 4 syncitia formed ([4]; 0.1 μM): (+)
- Day 5 syncitia formed ([4]; 0.1 μM): − and +
- Day 6 syncitia formed ([4]; 0.1 μM): +
- Day 7 syncitia formed ([4]; 0.1 μM): ++
- Day 4 syncitia formed ([4]; 0.5 μM): −
- Day 5 syncitia formed ([4]; 0.5 μM): −
- Day 6 syncitia formed ([4]; 0.5 μM): −
- Day 7 syncitia formed ([4]; 0.5 μM): (+) and +
- Day 4 syncitia formed ([4]; 1 μM): −
- Day 5 syncitia formed ([4]; 1 μM): −
- Day 6 syncitia formed ([4]; 1 μM): −
- Day 7 syncitia formed ([4]; 1 μM): −
- IC100 ([2]; on PBL): 0.1 µM
- Day 4 syncitia formed ([3]; 0.5 μM): −
- Day 5 syncitia formed ([3]; 0.5 μM): −
- Day 6 syncitia formed ([3]; 0.5 μM): −
- Day 7 syncitia formed ([3]; 0.5 μM): + and (+)
- Day 4 syncitia formed ([3]; 1 μM): −
- Day 5 syncitia formed ([3]; 1 μM): −
- Day 6 syncitia formed ([3]; 1 μM): −
- Day 7 syncitia formed ([3]; 1 μM): − and +
- Day 4 syncitia formed ([3]; 2 μM): −
- Day 5 syncitia formed ([3]; 2 μM): −
- Day 6 syncitia formed ([3]; 2 μM): −
- Day 7 syncitia formed ([3]; 2 μM): −
- Day 4 syncitia formed ([3]; 5 μM): −
- Day 5 syncitia formed ([3]; 5 μM): −
- Day 6 syncitia formed ([3]; 5 μM): −
- Day 7 syncitia formed ([3]; 5 μM): −
